Entries after “also recorded” stand apart in the source; their conditions may differ.
Experiments:
[1] = tested on: human AD brain sections; experiment: Ex vivo overlay binding to human AD brain sections
Description: (§1) PFA fixed sections were incubated in PBS for 10 minutes, followed by PBS-Triton-x-100 (0.2%) for 10 minutes. Sections were rinsed with PBST, mounted in a slide holder, and subsequently washed with PBS-T during 12 minutes. Slides were blocked with blocking buffer for 60 minutes at room temperature. Then, peptides were incubated at a concentration of 10 μg/mL dissolved in concentrated blocking buffer, for three hours at room temperature. Sections were then washed with three 4-minute washes of PBS-T, and subsequently fixed with PFA for 10 minutes, followed by three 3-minute washes with PBS-T. Sections were then incubated with primary antibody at 1/200 in diluted blocking buffer overnight at 4° C. Later, sections were washed with three 4-minute washes with PBS-T. Slides were then incubated with secondary antibody at 1/200 dilution in diluted blocking buffer for 30 minutes at room temperature, followed by three 4-minute washes of PBS-T. Sections were then counterstained with DAPI for 5 minutes, washed with PBS-T and mounted.
Postmortem human brain samples were obtained from the New York Brain Bank at Columbia University, New York. The patient was a person with a diagnosis of AD neuropathologic changes ([A3, B3, C3]). The normal brain tissue was obtained from BioChain Institute Inc. (Newark, Calif.). The donor was a person without any neurologic diagnosis on detailed neuropathologic evaluation. The Parkinson's disease brain tissue was obtained from UCSD Pathology bank. Frozen brain tissue was sectioned for immunohistochemistry and ex vivo overlay binding with FAM-peptides.

[2] = tested on: mTHY-1/α-synuclein overexpressing mouse model of Parkinson's disease; experiment: In vivo homing in Parkinson's disease mouse model; details: systemically injected
Description: (§2) All animal experiments were conducted under an approved protocol of the Institutional Animal Care and Use Committee of Sanford Burnham Prebys Medical Discovery Institute. The following transgenic mouse models were used for peptide homing studies—hAPP-J20 ([…], Nature genetics 1, 345-347 (1992)), Tg2576 (Jacobsen et al., Proc Natl Acad Sci USA 103, 5161-5166 (2006)), and mTHY-1-α-synuclein model (Chesselet et al., Neurotherapeutics 9, 297-314 (2012)). The P13 glioblastoma model is a patient-derived orthotopic xenograft model (Bougnaud et al., Oncotarget, (2016)). Spheroids were cultured as described previously (Bjerkvig et al., J Neurosurg 72, 463-475 (1990)). After two weeks in culture, spheroids (volume 2.5 μl) were stereotactically implanted into the brains of nude mice. Mice were used approximately 6 weeks after tumors were induced, when mice started presenting neurological symptoms. The acute brain injury model was setup as previously described (Mann et al., Nature communications 7, 11980 (2016)). Briefly, 8 to 10 week-old male BL6 mice were anaesthetized with 4% isoflurane in 70% N2O and 30% O2, and a 5-mm craniotomy was performed using a portable drill and a trephine over the right parietotemporal cortex using a stereotactic frame. […]

[3] = tested on: AD hippocampus; experiment: Homing of intravenously injected individual peptide-displaying phages; format: in vivo, mouse; details: intravenously injected phage displaying the peptide
Excerpt: FIG. 1B relates to phage titration showing that about 5 times more phage were recovered from the AD hippocampus than from the normal control. In the sequencing, phages displaying the peptides code named CASP (SEQ ID NO: 3; CASPRLSKC), CES (SEQ ID NO: 11, CESPLLSEC), and DAG (SEQ ID NO: 102, CDAGRKQKC) dominated. Hippocampus from age-matched normal wild-type mouse brain was used as a control.

[4] = tested on: hAPP-J20 mouse brain (hippocampus)
Description: The synthetic peptides were labeled with FAM and 100 nmol and were intravenously injected to 9-month old AD mice through the tail vein. The peptides were allowed to circulate for 30 min, after which the mice were perfused with 20 ml of PBS, the brains were collected and snap-frozen in OCT for sectioning. The peptides were detected by anti-FAM staining (green), nuclei were stained with DAPI (blue), and anti-CD31 was used to visualize blood vessels.
For peptide homing, mice were intravenously injected with 50 nmole peptide dissolved in PBS, and allowed to circulate for 30 min. Mice were then perfused intracardially with saline and all major organs were isolated and fixed in 4% paraformaldehyde (PFA) at pH 7.4 overnight. The organs were then washed with PBS and placed in graded sucrose solutions overnight before optimal cutting temperature compound (OCT) embedding. Ten-micro-meter-thick sections were cut and analyzed by immunostaining.
Frozen sections were permeabilized using PBS- 0.2% Triton™ X-100 (PBST), blocking was carried out using blocking buffer (5% BSA, 1% goat serum, 1% donkey serum in PBST. Primary antibodies were incubated in diluted (1%) blocking buffer overnight at dilutions 1/100 or 1/200 at 4° C., washed with PBST and incubated with secondary antibodies diluted 1/200 or 1/500 in 1% diluted buffer for 1 hour at room temperature, subsequently washed with PBST, counterstained with DAPI 1 μg/mL in PBS for 5 minutes, washed with PBS, mounted using aqueous mounting media (Vector Biolabs), and imaged using a confocal microscope (Zeiss LSM-710).

[5] = tested on: acute penetrating brain injury; experiment: In vivo homing in acute penetrating brain injury model; design: species or system mouse; details: injected 6 hours after injury
Description: as §2

[6] = tested on: hAPP-J20 mouse brain sections; experiment: Tissue section overlay of FAM-labeled peptides on mouse brain sections; format: binding; details: hAPP-J20 vs age-matched wild-type mice, hippocampal region
Description: as §1

CDAGRKQKC
Binding to human AD brain sections ([1]; overlay): bound strongly to the hippocampal region
Inhibition of binding to human AD sections by anti-CTGF antibody ([1]; pre-incubation with anti-CTGF antibody): partially inhibited by pre-incubation with anti-CTGF antibody
Accumulation in Parkinson's model brain [2]: accumulated in GFAP-positive astrocytes
Phage accumulation in normal brain [3]: no accumulation in normal brain
Phage homing to AD hippocampus [3]: home to AD hippocampus with high specificity
Homing in early-stage AD ([4]; 3-4 month old hAPP-J20 mice, i.v., 30 min): Robust DAG homing in young hAPP-J20 animals was observed, mostly in the cerebrocortex and the hippocampus
Cellular localization in brain ([4]; DAG-injected hAPP-J20 mice, anti-GFAP and anti-Aβ staining): accumulated within a subpopulation of GFAP-positive hypertrophic astrocytes surrounding the Aβ plaques
Accumulation in other organs ([4]; mouse, in vivo, iv): little if any accumulation of the peptide in other organs of the hAPP-J20 mouse except for kidney
Homing to brain injury [5]: robustly homed to the perilesional area containing activated hypertrophic astrocytes
Ex vivo peptide binding to brain sections [6]: bound to a much greater degree in the hippocampal region of hAPP-J20 mice than to age-matched wild-type mice; also recorded: far stronger than DAG binding to WT brain

Source: patent US11571485B2, “Peptides and antibodies for detecting changes in alzheimer's disease brain and methods of use thereof” (Sanford Burnham Prebys Medical Discovery Institute, priority 2016, dated 2023)
